In patent EP2019109A1, “Trimetal-arene clusters with anticancer activity” (Université de Neuchâtel, priority 2007, dated 2009):

Columns and labels:
[1] = tested on: A2780 ovarian carcinoma cell line; test: MTT assay, inhibition of cell viability; format: cell-based; settings: for IC50: A2780 ovarian carcinoma cell line, 72 hours of incubation, MTT assay; for cytotoxic activity (in words): A2780, statement drawn from Table 1
Description: (§1) The effects of the clusters on the cancer cell growth were evaluated after an exposure period of 72 hours using the MTT [3-(4,5-dimethylthiazol-2-yl)-2,5-diphenyltetrazolium bromide] assay which measures mitochondrial dehydrogenase activity as an indication of cell viability. In addition, the dose-response curves for 1a and 1b against the two cell lines are illustrated in Figures 2a and 2b. Table 1. Inhibition of cell viability (IC50) of complexes on A2780 and A2780cisR ovarian carcinoma cell lines after 72 hours of incubation, determined using MTT assay.

[2] = tested on: A2780cisR ovarian carcinoma cell line; test: MTT assay, inhibition of cell viability; format: cell-based; settings: for IC50: cisplatin-resistant A2780cisR ovarian carcinoma cell line, 72 hours of incubation, MTT assay; for cytotoxic activity (in words): A2780cisR, statement drawn from Table 1
Description: as §1

IC50 [1] [µM] | IC50 [2] [µM] | Compound | increase in cisplatin resistance ([2]; A2780cisR versus A2780) [fold] | cytotoxic activity (in words) [1] | cytotoxic activity (in words) [2]
> 100 | > 100 | [(η^6-C6H6)4Ru4(µ-H)3(µ-OH)][Cl]2 [Compound 2c] | – | – | –
> 100 | > 100 | [(η^6-C6H5Me)4Ru4(µ-H)4][BF4]2 [Compound 2b] | – | – | –
> 100 | > 100 | [(η^6-C6H6)4Ru4(µ-H)4][BF4]2 [Compound 2a] | – | – | –

More lines, now with the values behind:

Compound | IC50 [1] [µM] | IC50 [2] [µM] | increase in cisplatin resistance ([2]; A2780cisR versus A2780) [fold] | cytotoxic activity (in words) [1] | cytotoxic activity (in words) [2]
N.N.[Cl][Pt][Cl] [Cisplatin, reference compound] | 1.5 ± 0.3 | 8.7 ± 1.6 | 6 | – | –
Cc1ccc(C(C)C)cc1.[Cl][Ru]([Cl])[PH]12CN3CN(CN(C3)C1)C2 [RAPTA-C, reference compound] | > 100 | > 100 | – | – | –
[(η^6-C6H6)(η^6-1,4-^iPrC6H4Me)(η^6-C6Me6)Ru3(µ-H)3(µ3-O)][BF4] [Compound 1b] | 9.1 ± 0.9 | 28.9 ± 2.8 | – | remarkably active | remarkably active
[(η^6-C6H6)(η^6-C6Me6)2Ru3(µ-H)3(µ3-O)][BF4] [Compound 1a] | 9.8 ± 0.2 | 14.6 ± 0.7 | – | remarkably active | remarkably active
